Patent publication US6013625A, “Method and composition for treating thrombosis” (La Jolla Cancer Research Foundation, priority 1994, dated 2000)
Where “and” joins values, the source holds several entries; their conditions need not be identical. Equal entries are not always repeated.

What was measured:
[1] = system: platelets stimulated with ADP; experiment: ADP-stimulated platelet aggregation (aggregometer, platelet-rich plasma); conditions: read-out: ADP-Stimulated Aggregation (IC50), ADP 10 μm, 37° C.
Protocol: Briefly, the change in light transmission was measured through a stirred suspension of platelets in an aggregometer (Model 400 VS, Chrono-Log, Havertown, Pa., USA). […] In studies using thrombin, the PRP was gel-filtered on Sepharose 2B in divalent ion-free Tyrode's solution containing 2% BSA. For all studies, the reference standard was platelet-poor plasma, which was obtained by centrifuging PRP at 1000×g for 5 min.
All aggregation studies were performed at 37° C. with a constantly stirred suspension of 3×10^8 platelets/ml. (Platelet count was determined with the aid of a hemacytometer.) Peptides and stimulants were added to these suspensions in 1% dilutions. The PRP and gel-filtered platelets were used within three hours from the time of blood collection.
Peptide anti-aggregation potencies were determined from dose-responsive curves for the inhibition of the maximum aggregation responses stimulated by physiologic doses of ADP (10 μm) and thrombin (2 U/ml).

[2] = target: T1, fibronectin receptor (Fn-R) (Homo sapiens, UniProt P05556+P08648); experiment: Competitive ELISA for fibronectin receptor binding; conditions: purified receptor from human placenta, read-out: FnR Binding (IC50)
T1 construct: purified from (100 mM) octyl glucoside-extracted human placenta; from tissue; host or cells: human placenta
Protocol: Peptide binding to purified Fn-R was determined by using a competitive enzyme-linked immunosorbent assay (ELISA) in which fibronectin is immobilized and the binding of solubilized Fn-R is detected with labeled anti-FnR antibodies in the presence of various concentrations of peptide analogue.
Microtiter plates were coated with 110 μl of human fibronectin (at 2 μg/ml) in TBS. The plates were washed three times with TBS that contained 0.05% Tween 20. If necessary, peptides were added after this washing in 10 microliter aliquots. The fibronectin receptor was then added in 2-fold serial dilutions with TBS containing 20 mM octyl glucoside and 2 mM MnCl2. The plates were incubated for three hours at room temperature, washed with 200 μl of the above TBS-Tween buffer. 100 μl of affinity-purified rabbit anti-human fibronectin receptor antibody was added to the wells and the plates were incubated for an additional two hours, washed twice with TBS-Tween and then distilled water. Affinity-purified goat anti-rabbit IgG conjugated to horseradish peroxidase (100 μl) was then added to each well. Bonding reactions were incubated for 16 hours at room temperature. The following day, the plates were washed twice with TBS-Tween and then distilled water. […]

[3] = target: T2, vitronectin receptor (Vn-R) (Homo sapiens, UniProt P05106+P06756); experiment: Liposome attachment assay for vitronectin receptor; conditions: purified receptor from human placenta, read-out: VnR Binding (IC50)
T2 construct: from tissue; host or cells: human placenta
Protocol: Receptors were purified according to the procedures of Pytela et al. (Methods Enzymol. 144:475 (1987)), incorporated herein by reference. […] After extraction, the suspension was filtered over a Sepharose 6B column and then applied to a GRGDSPK column. Except where stated, all procedures were carried out at 4° C. The peptide column was washed with three volumes of Tris-buffered saline (TBS) containing 1 mM Ca^2+ and 25 mM OG and then with TBS containing 1 mM Ca^2+ and 25 mM octyl thioglucoside (OTG) at room temperature. […] Finally, Ca^2+ and Mg^+2 were added to eluted fractions to achieve final concentrations of 1 mM for both ions.
This assay was performed with minor modifications, according to the method of Pytela et al., Methods Enzymol. 144:475 (1987), incorporated herein by reference. […] An aliquot of the dialyzed sample was counted to assess radioactive content; the receptor-liposome mixture was then diluted to obtain a set radioactivity per unit volume. […]
(§1) In parallel studies with the platelet aggregation experiments (described in Example V), the apparent affinities of peptides for GP IIb/IIIa, fibronectin and vitronectin receptors were determined. […]
(§2) IC50 s for FnR were determined by ELISA (Example III). Those for VnR and GP IIb/IIIa were determined by liposome attachment assay (Example IV). […]

[4] = target: GP IIb/IIIa (Homo sapiens, UniProt P05106+P08514); experiment: Liposome attachment assay for GP IIb/IIIa; conditions: read-out: IIb/IIIa Binding (IC50)
Protocol: This assay was performed with minor modifications, according to the method of Pytela et al., Methods Enzymol. 144:475 (1987), incorporated herein by reference. Briefly, 1:4 mixture of labelled and unlabelled phosphatidylcholine (PC) liposomes was dissolved under nitrogen and diluted with an equal volume of purified receptor (purified as described in Example II) to achieve a fixed predetermined receptor-liposome concentration ratio. This mixture was then dialyzed overnight at 4° C. in phosphate buffered saline (PBS) containing 1 mM Ca^2+. An aliquot of the dialyzed sample was counted to assess radioactive content; the receptor-liposome mixture was then diluted to obtain a set radioactivity per unit volume.
Microtiter plates were coated with 10 μg of vitronectin. Non-specific sites were blocked for 2 hours at 37° C. in PBS containing 5 mg/ml BSA and 1 mM each of CaCl2 and MgCl2. The plates were then rinsed twice with PBS containing 1 mM Ca^+2 and Mg^+2, and 100 μl of the liposome-receptor mixture was added to each well. […]
as §1, §2

[5] = system: coronary thrombosis; experiment: Electrically induced canine coronary thrombosis, time to full occlusion; format: in vivo, dog
Protocol: Male mongrel dogs weighing 14 to 20 kg were selected based on proper aggregation of their platelets in response to arachidonic acid, collagen, and adenosine disphosphate (ADP) and based on similar weights and hemodynamic properties.
Before surgery, the animals were anesthetized with sodium pentobarbital (30 mg/kg, i.v.) and then intubated and ventilated on room air with positive pressure using a respirator (Harvard Apparatus, S. Natick, Mass.) at a volume of 30 ml/kg and a frequency of 12 breaths/min. Surgery, performed under aseptic conditions, was begun with the placement of cannulae into the left carotid artery and jugular vein for monitoring arterial blood pressure (Statham P23 pressure transducer, Gould, Inc., Cardiovascular Products, Oxnard, Calif.) and administering intravenous fluids.
The heart was exposed via a left thoracotomy through the 5th intercostal space. A 2-cm segment of the left circumflex coronary artery (LCCA) was isolated from surrounding tissue by blunt dissection. […] The intra-coronary electrode was constructed by attaching a 25-gauge hypodermic needle tip to a 30-gauge Teflon-insulated silver-coated copper wire. The mechanical occluder was constructed of stainless steel in a C shape with a Teflon screw (2 mm diameter) on top. It was adjusted to control vessel circumference and decrease the reactive hyperemic flow due to a 10-sec (full) occlusion by 50-70% without affecting basal coronary blood flow (FIG. 1). A monopolar epicardial electrode was sutured to the surface of the ventricle in the region of LCCA distribution to monitor ischemic changes in the electrocardiogram (ECG). The left atrium was cannulated with polythylene tubing for administration of the peptide. Continuous recordings of blood pressure, limb lead II ECG, epicardial electrogram, and mean and phasic LCCA blood flow were obtained on a Model 7 polygraph (Grass Instrument Co., Quincy, Mass.).
One hour after the completion of surgery, a 100 micro-amp continuous anodal direct current delivered from a 9 volt nickel-cadmium battery was applied to the intimal surface of the LCCA. The anode of the battery was in series with a 250,000 ohm potentiometer and the intraluminal coronary artery electrode. The electric circuit was completed by placing the cathode in a subcutaneous site. Electrical stimulation was applied for three hours. At the conclusion of each experiment, the heart was fibrillated electrically and quickly removed, and the LCCA was dissected free as far as possible to verify the position of the implanted anodal electrode.
(§3) Animals were randomly assigned to two treatment groups: vehicle control (i.e., normal saline) or RGD peptides at various concentrations. Peptides were administered intra-atrially in both bolus and continuous injections. Each bolus injection consisted of 5 or 10 mg/kg and was administered 15 minutes before application of the current. A continuous infusion of the same peptide was then started immediately after completion of this initial injection. Animals that received a 5 mg/kg bolus also received a 5 mg/kg/hr infusion, whereas animals that received a 10 mg/kg bolus also received a 10 mg/kg/hr infusion. The anti-thrombotic effects of the peptides were monitored until 30 minutes after the occurrence of a persistent, occlusive thrombus or five hours after the initiation of electrical stimulation (whichever resulted first). If an occlusive thrombus had not developed within four hours after the initiation of current, the peptide infusion was stopped.
Coronary thrombosis was quantified as the time to full occlusion. The effects of the various peptide treatments on coronary thrombosis is illustrated in FIG. 4.

[6] = system: platelets; experiment: Ex vivo ADP-stimulated platelet aggregation in baboon PRP; conditions: animal 2; ADP 10 μm; 0, 1 and 2 hours
Protocol: At one- and two-hour time points, template bleeding times were measured, and blood samples were drawn to assess the hematology aggregation studies. Platelet aggregation studies were performed as described in Example V using ADP as the stimulus.
In addition, platelet aggregation studies were conducted on PRP derived from the second animal. Whole blood was drawn at three time points (0, 1 and 2 hours) of both control and experimental shunts.

[7] = system: platelets; experiment: Ex vivo platelet aggregation after peptide injection in the canine coronary thrombosis model; design: species or system dog; conditions: for reduction of ex vivo aggregation relative to control levels: 3 mg/kg
Protocol: For all ex vivo studies (see FIG. 3), control aggregation values were standardized to the percentages of light transmission observed in PRP and PPP samples (0% and 100%, respectively).
as §3, with “Each bolus injection consisted of 5 or 10 mg/kg and was administered 15 minutes before application of the current.” left out
Platelet counts and ex vivo aggregation studies were performed one hour before and 1, 3, and 5 hours after application of anodal direct current.
Platelet aggregation was also determined ex vivo at one, three, and five hours after current application. For these studies, arachidonic acid, or collagen was again used to stimulate the platelets.

[8] = 10 mg/kg bolus + 10 mg/kg/hr, intra-atrial
[9] = 10 mg/kg, all three time points

T1 sequence (P08648 42-894 limits assumed): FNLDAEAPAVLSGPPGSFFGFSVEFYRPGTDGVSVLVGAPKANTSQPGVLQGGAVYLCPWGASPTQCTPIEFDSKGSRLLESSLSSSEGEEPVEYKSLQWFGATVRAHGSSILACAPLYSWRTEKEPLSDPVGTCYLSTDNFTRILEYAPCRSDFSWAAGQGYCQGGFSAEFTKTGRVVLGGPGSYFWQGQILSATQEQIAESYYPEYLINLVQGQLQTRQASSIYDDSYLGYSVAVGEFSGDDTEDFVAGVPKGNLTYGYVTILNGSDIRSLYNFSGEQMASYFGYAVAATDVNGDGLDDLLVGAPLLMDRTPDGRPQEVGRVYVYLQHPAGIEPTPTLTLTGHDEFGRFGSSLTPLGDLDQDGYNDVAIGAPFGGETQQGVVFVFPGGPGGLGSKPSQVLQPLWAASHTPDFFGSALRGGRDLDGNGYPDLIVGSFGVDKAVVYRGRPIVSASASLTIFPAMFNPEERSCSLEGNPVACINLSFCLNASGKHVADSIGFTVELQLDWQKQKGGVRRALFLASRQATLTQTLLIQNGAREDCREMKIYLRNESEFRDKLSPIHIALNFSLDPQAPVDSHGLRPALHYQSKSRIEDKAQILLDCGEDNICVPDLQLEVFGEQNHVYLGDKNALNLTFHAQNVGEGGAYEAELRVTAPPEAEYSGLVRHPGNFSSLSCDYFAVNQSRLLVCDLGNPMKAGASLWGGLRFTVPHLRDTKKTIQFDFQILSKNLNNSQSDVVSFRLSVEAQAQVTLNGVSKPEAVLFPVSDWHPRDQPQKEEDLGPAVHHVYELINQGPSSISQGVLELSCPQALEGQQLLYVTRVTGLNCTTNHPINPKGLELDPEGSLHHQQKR
T1 sequence (P08648 895-1049 partner limits assumed): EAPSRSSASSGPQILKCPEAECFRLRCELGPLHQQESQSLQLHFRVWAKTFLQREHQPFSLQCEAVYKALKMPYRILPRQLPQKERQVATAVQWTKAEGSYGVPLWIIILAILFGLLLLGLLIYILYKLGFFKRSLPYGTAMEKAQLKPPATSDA
T1 sequence (P05556 21-798): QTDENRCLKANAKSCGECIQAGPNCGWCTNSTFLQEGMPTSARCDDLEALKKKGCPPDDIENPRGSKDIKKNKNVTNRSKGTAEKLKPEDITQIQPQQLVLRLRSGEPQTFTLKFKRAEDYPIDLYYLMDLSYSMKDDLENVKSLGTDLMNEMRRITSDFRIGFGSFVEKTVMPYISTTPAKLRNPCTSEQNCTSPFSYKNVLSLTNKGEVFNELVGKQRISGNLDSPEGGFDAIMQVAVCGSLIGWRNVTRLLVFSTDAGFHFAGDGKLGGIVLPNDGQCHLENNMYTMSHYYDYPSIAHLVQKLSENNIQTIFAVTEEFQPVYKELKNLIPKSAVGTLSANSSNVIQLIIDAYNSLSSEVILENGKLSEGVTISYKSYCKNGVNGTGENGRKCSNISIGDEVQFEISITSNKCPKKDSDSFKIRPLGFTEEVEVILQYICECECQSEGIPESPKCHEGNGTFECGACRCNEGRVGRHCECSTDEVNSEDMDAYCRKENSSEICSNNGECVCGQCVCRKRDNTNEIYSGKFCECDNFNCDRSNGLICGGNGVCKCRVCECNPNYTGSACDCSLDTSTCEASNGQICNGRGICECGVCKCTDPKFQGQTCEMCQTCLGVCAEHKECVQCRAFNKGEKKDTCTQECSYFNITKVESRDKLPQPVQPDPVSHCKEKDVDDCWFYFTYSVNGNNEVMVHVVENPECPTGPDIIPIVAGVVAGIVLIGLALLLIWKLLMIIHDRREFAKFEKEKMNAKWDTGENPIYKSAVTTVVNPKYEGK
T2 sequence (P06756 31-889 limits assumed): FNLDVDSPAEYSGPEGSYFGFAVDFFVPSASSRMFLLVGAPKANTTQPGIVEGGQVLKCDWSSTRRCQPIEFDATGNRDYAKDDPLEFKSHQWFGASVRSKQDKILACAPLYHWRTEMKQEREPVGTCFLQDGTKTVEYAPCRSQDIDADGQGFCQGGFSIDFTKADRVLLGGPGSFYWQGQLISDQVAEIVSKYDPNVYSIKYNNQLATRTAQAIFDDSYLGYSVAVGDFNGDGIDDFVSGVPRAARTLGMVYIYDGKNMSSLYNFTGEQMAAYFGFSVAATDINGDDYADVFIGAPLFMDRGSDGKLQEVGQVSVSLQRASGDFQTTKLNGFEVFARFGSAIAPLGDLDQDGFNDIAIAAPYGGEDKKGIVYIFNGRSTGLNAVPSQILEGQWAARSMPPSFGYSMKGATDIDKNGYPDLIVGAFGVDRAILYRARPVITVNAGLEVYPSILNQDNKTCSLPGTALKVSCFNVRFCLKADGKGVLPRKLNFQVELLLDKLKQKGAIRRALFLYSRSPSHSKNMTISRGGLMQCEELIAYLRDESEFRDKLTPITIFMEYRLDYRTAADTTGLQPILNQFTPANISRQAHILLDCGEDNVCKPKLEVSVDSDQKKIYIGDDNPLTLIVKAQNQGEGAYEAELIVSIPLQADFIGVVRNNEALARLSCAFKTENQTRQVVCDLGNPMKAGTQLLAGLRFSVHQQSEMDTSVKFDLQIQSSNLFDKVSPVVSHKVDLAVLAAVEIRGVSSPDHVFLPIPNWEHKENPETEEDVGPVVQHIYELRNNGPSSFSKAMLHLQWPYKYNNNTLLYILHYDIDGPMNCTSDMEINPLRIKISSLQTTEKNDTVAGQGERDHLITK
T2 sequence (P06756 891-1048 partner limits assumed): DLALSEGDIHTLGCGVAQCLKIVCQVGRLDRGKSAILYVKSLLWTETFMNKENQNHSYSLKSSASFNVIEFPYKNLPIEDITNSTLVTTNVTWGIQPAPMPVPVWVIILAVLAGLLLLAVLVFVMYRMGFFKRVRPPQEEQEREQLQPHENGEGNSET
T2 sequence (P05106 27-788): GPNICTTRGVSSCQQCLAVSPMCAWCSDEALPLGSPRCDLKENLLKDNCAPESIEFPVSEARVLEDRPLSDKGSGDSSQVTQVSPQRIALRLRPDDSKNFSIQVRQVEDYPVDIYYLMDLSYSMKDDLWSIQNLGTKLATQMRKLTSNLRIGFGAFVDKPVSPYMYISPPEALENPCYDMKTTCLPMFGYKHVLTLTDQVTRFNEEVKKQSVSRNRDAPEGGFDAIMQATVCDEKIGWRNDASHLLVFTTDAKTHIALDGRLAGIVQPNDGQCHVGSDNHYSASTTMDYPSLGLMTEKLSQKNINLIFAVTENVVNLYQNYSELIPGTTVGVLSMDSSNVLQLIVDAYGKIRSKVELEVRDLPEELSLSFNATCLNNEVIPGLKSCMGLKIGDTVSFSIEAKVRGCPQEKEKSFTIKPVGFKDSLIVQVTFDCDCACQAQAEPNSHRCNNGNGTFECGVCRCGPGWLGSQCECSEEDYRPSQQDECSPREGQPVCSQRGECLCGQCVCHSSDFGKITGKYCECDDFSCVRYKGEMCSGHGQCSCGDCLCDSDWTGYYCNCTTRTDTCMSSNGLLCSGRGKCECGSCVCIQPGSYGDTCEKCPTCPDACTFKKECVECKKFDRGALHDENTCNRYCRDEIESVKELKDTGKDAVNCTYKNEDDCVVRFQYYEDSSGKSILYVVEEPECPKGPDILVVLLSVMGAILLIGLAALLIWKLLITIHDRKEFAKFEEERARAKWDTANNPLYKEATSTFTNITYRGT
Sequence of GP IIb/IIIa (P08514 32-887 limits assumed): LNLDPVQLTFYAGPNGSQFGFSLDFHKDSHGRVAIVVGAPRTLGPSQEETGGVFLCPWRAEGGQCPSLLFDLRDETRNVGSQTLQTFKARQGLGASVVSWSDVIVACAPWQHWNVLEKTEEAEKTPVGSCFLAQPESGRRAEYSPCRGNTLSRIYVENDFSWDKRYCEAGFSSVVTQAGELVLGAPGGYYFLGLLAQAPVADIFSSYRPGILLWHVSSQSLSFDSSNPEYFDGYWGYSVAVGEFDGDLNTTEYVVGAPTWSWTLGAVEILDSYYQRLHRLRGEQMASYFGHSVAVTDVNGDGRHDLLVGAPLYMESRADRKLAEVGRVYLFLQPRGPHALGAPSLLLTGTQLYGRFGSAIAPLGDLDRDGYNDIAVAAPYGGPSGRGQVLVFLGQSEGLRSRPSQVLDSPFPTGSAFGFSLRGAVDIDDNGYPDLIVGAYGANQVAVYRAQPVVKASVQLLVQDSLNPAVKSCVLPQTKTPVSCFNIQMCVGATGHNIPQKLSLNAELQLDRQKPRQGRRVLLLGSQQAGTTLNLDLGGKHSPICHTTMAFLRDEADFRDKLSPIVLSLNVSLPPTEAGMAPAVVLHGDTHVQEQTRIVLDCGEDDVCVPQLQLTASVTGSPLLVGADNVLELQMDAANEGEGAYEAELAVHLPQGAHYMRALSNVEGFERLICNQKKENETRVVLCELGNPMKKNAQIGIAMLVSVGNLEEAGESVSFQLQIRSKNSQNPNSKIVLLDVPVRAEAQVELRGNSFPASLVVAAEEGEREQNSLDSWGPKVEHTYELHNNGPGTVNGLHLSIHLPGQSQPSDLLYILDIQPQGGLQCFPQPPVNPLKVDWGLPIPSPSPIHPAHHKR
Sequence of GP IIb/IIIa (P08514 891-1039 partner limits assumed): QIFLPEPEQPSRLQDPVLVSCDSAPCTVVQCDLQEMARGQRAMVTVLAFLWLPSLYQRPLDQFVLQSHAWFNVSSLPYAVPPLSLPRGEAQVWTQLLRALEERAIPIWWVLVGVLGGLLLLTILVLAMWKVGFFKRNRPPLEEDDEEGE
Sequence of GP IIb/IIIa (P05106 27-788): as the sequence (P05106 27-788) above

## (t-but-am-Pam-Pmp)GHRGDLRPenA
[1]
  IC50: 89 µM

## FRGDSPDG
[2]
  IC50: 0.12 µM

## GHRGDLRDASG
[3]
  IC50: 36.8 µM

## GPGRGDSPCA
[4]
  IC50: 20 µM

## GPenGHRGDLRCA
[5]; [8]
  time to full occlusion (coronary thrombosis): did not significantly influence
[6]
  ex vivo platelet responsiveness to ADP: completely unresponsive
[7]; 10 mg/kg, 1, 3 and 5 h
  inhibition of ADP-stimulated ex vivo aggregation: substantially inhibited
[7]; [9]
  inhibition of AA-stimulated ex vivo aggregation relative to control levels: 43-70%
  inhibition of collagen-stimulated ex vivo aggregation relative to control levels: 12-50%

## GRGDSPDG
[2]
  IC50: 0.005 µM

## RPenGHRGDWRCR
[5]; 5 mg/kg
  thrombus formation in animals whose circulating platelet levels were one-third of normal: able to prevent thrombus formation
[5]; 5 mg/kg bolus + 5 mg/kg/hr, intra-atrial
  time to full occlusion (coronary thrombosis): significantly prolonged
[5]; [8]
  time to full occlusion (coronary thrombosis): completely prevented occlusion
[7]; 5 mg/kg
  blockade of all ex vivo aggregation responses: completely or near-maximally blocked
  inhibition of ex vivo platelet activation by collagen: near-maximal inhibition
[7]; 5 mg/kg, all three time points
  platelet responsiveness ex vivo to ADP and AA: completely unresponsive

## RPenGRGDWPCR
[5]; 3 mg/kg
  time to full occlusion (coronary thrombosis): ineffective
[5]; [8]
  time to full occlusion (coronary thrombosis): prevented occlusion
[7]; one hour
  reduction of ex vivo aggregation relative to control levels: 20-58%
[7]; three and five hours, listed as 4R
  reduction of ex vivo aggregation relative to control levels: 75-100% and 72-100%
[7]; 10 mg/kg, all time points
  ex vivo platelet responsiveness to all modes of stimulation: unresponsive
